# Measured values: ChEMBL document CHEMBL1136447, “Biological investigation and structure-activity relationship studies on azadirone from Azadirachta indica A. Juss” (2003)
# Key:
# A498 [1] = experiment: In vitro cytotoxic activity against renal (A498) cell line at a concentration of 10e-5 M; type: functional, Homo sapiens
# NCI-H522 [2] = experiment: In vitro cytotoxic activity against lung (H522) cell line; conditions: Homo sapiens
# U-251 [3] = experiment: In vitro cytotoxic activity against CNS(U251) cell line at a concentration of 10e-5 M; type: functional, Homo sapiens
# M14 [4] = experiment: In vitro cytotoxic activity against Melanoma (M14) cell line at a concentration of 10e-5 M; type: functional, Homo sapiens
# Mus musculus [5] = experiment: In vivo potential in Swiss Albino Mice using modified hollow fiber assay at the dose of 150 mg/kg as total score; type: functional
# U-251 [6] = experiment: In vitro cytotoxic activity against CNS(U251) cell line; type: functional; conditions: Homo sapiens
# MCF7 [7] = experiment: In vitro cytotoxic activity against breast (MCF-7/ADR) cell line; type: functional; conditions: Homo sapiens
# Mus musculus [8] = experiment: In vivo potential in Swiss Albino Mice using modified hollow fiber assay at the dose of 75 mg/kg by sc administration; type: functional; conditions: route subcutaneous
# Mus musculus [9] = experiment: In vivo potential in Swiss Albino Mice using modified hollow fiber assay at the dose of 75 mg/kg by ip administration; type: functional; conditions: route intraperitoneal
# SK-OV-3 [10] = experiment: In vitro cytotoxic activity against Ovarian (SK-OV3) cell line at a concentration of 10e-5 M; type: functional, Homo sapiens
# SW-620 [11] = experiment: In vitro cytotoxic activity against colon (SW620) cell line at a concentration of 10e-5 M; type: functional, Homo sapiens
# DU-145 [12] = experiment: In vitro cytotoxic activity against prostate (DU145) cell line; type: functional; conditions: Homo sapiens
# Mus musculus [13] = experiment: In vivo potential in Swiss Albino Mice using modified hollow fiber assay at the dose of 150 mg/kg by ip administration; type: functional; conditions: route intraperitoneal
# Mus musculus [14] = experiment: In vivo potential in Swiss Albino Mice using modified hollow fiber assay at the dose of 75 mg/kg as total score; type: functional
# MCF7 [15] = experiment: In vitro cytotoxic activity against breast (MCF-7/ADR) cell line at a concentration of 10e-5 M; type: functional, Homo sapiens
# SW-620 [16] = experiment: In vitro cytotoxic activity against colon (SW620) cell line; type: functional; conditions: Homo sapiens
# NCI-H522 [17] = experiment: In vitro cytotoxic activity against lung (H522) cell line at a concentration of 10e-5 M
# SK-OV-3 [18] = experiment: In vitro cytotoxic activity against Ovarian (SK-OV3) cell line; type: functional; conditions: Homo sapiens
# A498 [19] = experiment: In vitro cytotoxic activity against renal (A498) cell line; type: functional; conditions: Homo sapiens
# M14 [20] = experiment: In vitro cytotoxic activity against Melanoma (M14) cell line; type: functional; conditions: Homo sapiens
# DU-145 [21] = experiment: In vitro cytotoxic activity against prostate (DU145) cell line at a concentration of 10e-5 M; type: functional, Homo sapiens
# Mus musculus [22] = experiment: In vivo potential in Swiss Albino Mice using modified hollow fiber assay at the dose of 150 mg/kg by sc administration; type: functional; conditions: route subcutaneous
# NCI-H522 [23] = experiment: In vitro cytotoxicity against H522 (human adenocarcinoma) cell line at a concentration of 10e-5 M.
# NCI-H522 [24] = experiment: In vitro cytotoxic activity against lung (H522) cell line at a concentration of 10e-5 M; type: functional, Homo sapiens
# Mus musculus [25] = experiment: In vivo potential in Swiss Albino Mice using modified hollow fiber assay at the dose of 50 mg/kg by sc administration; type: functional; conditions: route subcutaneous
# Mus musculus [26] = experiment: In vivo potential in Swiss Albino Mice using modified hollow fiber assay at the dose of 100 mg/kg by ip administration; type: functional; conditions: route intraperitoneal
# Mus musculus [27] = experiment: In vivo potential in Swiss Albino Mice using modified hollow fiber assay at the dose of 100 mg/kg as total score; type: functional
# Mus musculus [28] = experiment: In vivo potential in Swiss Albino Mice using modified hollow fiber assay at the dose of 50 mg/kg by ip administration; type: functional; conditions: route intraperitoneal
# Mus musculus [29] = experiment: In vivo potential in Swiss Albino Mice using modified hollow fiber assay at the dose of 50 mg/kg as total score; type: functional
# Mus musculus [30] = experiment: In vivo potential in Swiss Albino Mice using modified hollow fiber assay at the dose of 100 mg/kg by sc administration; type: functional; conditions: route subcutaneous
Compound,Growth (A498 [1]) [%],GI50 (NCI-H522 [2]) [µM],Growth (U-251 [3]) [%],Growth (M14 [4]) [%],Score (Mus musculus [5]),GI50 (U-251 [6]) [µM],GI50 (MCF7 [7]) [µM],Score (Mus musculus [8]),Score (Mus musculus [9]),Growth (SK-OV-3 [10]) [%],Growth (SW-620 [11]) [%],GI50 (DU-145 [12]) [µM],Score (Mus musculus [13]),Score (Mus musculus [14]),Growth (MCF7 [15]) [%],GI50 (SW-620 [16]) [µM],GI50 (SK-OV-3 [18]) [µM],GI50 (A498 [19]) [µM],GI50 (M14 [20]) [µM],Growth (DU-145 [21]) [%],also measured
CC(=O)O[C@@H]1CC2C(C)(C)C(=O)C=C[C@]2(C)C2CC[C@]3(C)C(=CC[C@H]3c3ccoc3)[C@@]21C (some centres not stated),23,6,-4,-6,48,2.5,0.06,12,14,30,29,0.05,24,36,-18,7,5,2,0.08,-6,Growth (NCI-H522 [17]): 29%; Score (Mus musculus [22]): 24
CC(=O)O[C@H]1C[C@@H](OC(C)=O)C(C)(C)C2C[C@@H](OC(C)=O)[C@@]3(C)C4=CC[C@@H](c5ccoc5)[C@]4(C)CCC3[C@]21C (some centres not stated),-5,40,-24,-22,48,30,4,6,12,42,-60,4,24,18,38,3,9,15,5,-19,Score (Mus musculus [22]): 24; Growth (NCI-H522 [23]): 8%
CC1(C)C(=O)C=C[C@@]2(C)C1CC(=O)[C@@]1(C)C3=CC[C@@H](c4ccoc4)[C@]3(C)CCC12 (some centres not stated),9,25,27,7,,6,3,,,43,3,6,,,30,3,7.5,4,0.6,7,Growth (NCI-H522 [24]): 43%
CC(=O)O[C@@H]1CC2C(C)(C)/C(=N/OCCN3CCCC3)C=C[C@]2(C)C2CC[C@]3(C)C(=CC[C@H]3c3ccoc3)[C@@]21C (some centres not stated),-16,4,-24,26,,4,3,,,-35,-51,6,,,22,3,4,4,5,32,Score (Mus musculus [25]): 8; Score (Mus musculus [26]): 24; Score (Mus musculus [27]): 46; Score (Mus musculus [28]): 14; Score (Mus musculus [29]): 22; Score (Mus musculus [30]): 22; Growth (NCI-H522 [23]): -13.9%
